Laboratory results reported in patent EP4273147A1, “SUBSTITUTED SPIROLACTAMS, SALTS THEREOF AND THEIR USE AS HERBICIDALLY ACTIVE SUBSTANCES” (Bayer Aktiengesellschaft, priority 2022, dated 2023).

Columns and labels:
ABUTH = experiment: Herbicidal pre-emergence action (Table A1); format: in vivo, Abutilon theophrasti; conditions: application rate 1280 g/ha; visual grading after ca. 3 weeks vs untreated controls (100% = plants have died off, 0% = as control plants)
Source text: Seeds of mono- and dicotyledonous weed plants were sown in plastic pots (double sowings with one species of mono- and one species of dicotyledonous weed plants per pot), in sandy loam, and covered with soil.

ECHCG [1] = experiment: Herbicidal pre-emergence action (Table A2); format: in vivo, Echinochloa crus-galli; conditions: visual grading after ca. 3 weeks
Summary of the method: (§1)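 Pots: sandy loam. Sowing: one mono- and one dicot weed species together per pot. Seeds covered with soil.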

LOLRI [2] = experiment: Herbicidal pre-emergence action (Table A3); format: in vivo, Lolium rigidum; conditions: visual grading after ca. 3 weeks
Summary of the method: as §1

MATIN [3] = experiment: Herbicidal pre-emergence action (Table A4); format: in vivo, Matricaria inodora; conditions: application rate 1280 g/ha; visual grading after ca. 3 weeks
Summary of the method: as §1

SETVI [4] = experiment: Herbicidal pre-emergence action (Table A5); format: in vivo, Setaria viridis; conditions: visual grading after ca. 3 weeks
Summary of the method: as §1

STEME = experiment: Herbicidal pre-emergence action (Table A6); format: in vivo, Stellaria media; conditions: visual grading after ca. 3 weeks
Summary of the method: as §1

POAAN [5] = experiment: Herbicidal pre-emergence action (Table A7); format: in vivo, Poa annua; conditions: visual grading after ca. 3 weeks
Summary of the method: as §1

KCHSC = experiment: Herbicidal pre-emergence action (Table A10); format: in vivo, Kochia scoparia; conditions: application rate 1280 g/ha; visual grading after ca. 3 weeks
Summary of the method: as §1

ECHCG [6] = experiment: Herbicidal post-emergence action (Table B3); format: in vivo, Echinochloa crus-galli; conditions: rated visually after about 3 weeks
Summary of the method: (§2)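 Visual rating against untreated plants (0% = as control, 100% = dead) made roughly 3 weeks after application. Weed species were grown in sandy loam pots under greenhouse conditions and sprayed at the one-leaf stage, 2–3 weeks post-sowing.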

POAAN [7] = experiment: Herbicidal post-emergence action (Table B7); format: in vivo, Poa annua
Summary of the method: as §2

VERPE [8] = experiment: Herbicidal post-emergence action (Table B10); format: in vivo, Veronica persica
Protocol: (§3) Seeds of mono- and dicotyledonous weed plants were placed in plastic pots in sandy loam soil (doubly sown with in each case one species of mono- or dicotyledonous weed plants per pot), covered with soil and cultivated in a greenhouse under controlled growth conditions. 2 to 3 weeks after sowing, the test plants were treated at the one-leaf stage. […] After the test plants had been kept in the greenhouse under optimum growth conditions for about 3 weeks, the activity of the preparations was rated visually in comparison to untreated controls. For example, 100% activity = the plants have died, 0% activity = like control plants.

AMARE = experiment: Herbicidal post-emergence action (Table B11); format: in vivo, Amaranthus retroflexus
Protocol: as §3

ALOMY [9] = experiment: Herbicidal pre-emergence action (Table A9); format: in vivo, Alopecurus myosuroides; conditions: application rate 1280 g/ha; visual grading after ca. 3 weeks
Summary of the method: as §1

VERPE [10] = experiment: Herbicidal pre-emergence action (Table A11); format: in vivo, Veronica persica; conditions: application rate 1280 g/ha; visual grading after ca. 3 weeks
Summary of the method: as §1

SETVI [11] = experiment: Herbicidal post-emergence action (Table B8); format: in vivo, Setaria viridis; conditions: application rate 1280 g/ha
Protocol: as §3

DIGSA [12] = experiment: Herbicidal pre-emergence action (Table A12); format: in vivo, Digitaria sanguinalis; conditions: application rate 320 g/ha; visual grading after ca. 3 weeks
Summary of the method: as §1

MATIN [13] = experiment: Herbicidal post-emergence action (Table B6); format: in vivo, Matricaria inodora; conditions: application rate 320 g/ha; rated visually after about 3 weeks
Protocol: as §3

DIGSA [14] = experiment: Herbicidal pre-emergence action, section C (Table C5); format: in vivo, Digitaria sanguinalis; conditions: application rate 320 g/ha; visual grading after ca. 3 weeks
SETVI [15] = experiment: Herbicidal pre-emergence action, section C (Table C10); format: in vivo, Setaria viridis; conditions: application rate 320 g/ha; visual grading after ca. 3 weeks
VIOTR = experiment: Herbicidal pre-emergence action, section C (Table C12); format: in vivo, Viola tricolor; conditions: application rate 320 g/ha; visual grading after ca. 3 weeks
Source text: Seeds of mono- and dicotyledonous weed plants and crop plants were sown, in plastic or organic planting pots, in sandy loam and covered with soil. The compounds according to the invention, formulated in the form of wettable powders (WP) or as emulsifiable concentrates (EC), were applied to the surface of the covering soil as aqueous suspension or emulsion, with the addition of 0.5% of an additive, at an application rate of 600 1 of water/ha (converted). Following treatment, the pots were placed in a greenhouse and kept under optimum growth conditions for the test plants.

ZEAMX [16] = experiment: Pre-emergence effects on crop plants (Table D1); format: in vivo, Zea mays; conditions: crop plant; application rate 80 g/ha; visual grading after ca. 3 weeks
TRZAS [17] = experiment: Pre-emergence effects on crop plants (Table D2); format: in vivo, Triticum aestivum; conditions: crop plant; application rate 320 g/ha; visual grading after ca. 3 weeks
BRSNW [18] = experiment: Pre-emergence effects on crop plants (Table D5); format: in vivo, Brassica napus; conditions: crop plant; application rate 320 g/ha; visual grading after ca. 3 weeks
ZEAMX [19] = experiment: Post-emergence effects on crop plants (Table F1); format: in vivo, Zea mays; conditions: crop plant ZEAMX
Source text: (§4) 2 to 3 weeks after sowing, the test plants were sprayed in the single-leaf stage.

TRZAS [20] = experiment: Post-emergence effects on crop plants (Table F2); format: in vivo, Triticum aestivum; conditions: application rate 320 g/ha, crop plant TRZAS
Source text: as §4

ORYZA [21] = experiment: Post-emergence effects on crop plants (Table F3); format: in vivo, Oryza sativa; conditions: application rate 320 g/ha, crop plant ORYZA
Source text: as §4

GLXMA [22] = experiment: Post-emergence effects on crop plants (Table F4); format: in vivo, Glycine max; conditions: application rate 320 g/ha, crop plant GLXMA
Source text: as §4

BRSNW [23] = experiment: Post-emergence effects on crop plants (Table F5); format: in vivo, Brassica napus; conditions: application rate 320 g/ha, crop plant BRSNW
Source text: as §4

ORYZA [24] = experiment: Pre-emergence effects on crop plants (Table D3); conditions: crop plant, visual grading after ca. 3 weeks
Source text: Seeds of mono- and dicotyledonous weed plants and crop plants were sown, in plastic or organic planting pots, in sandy loam and covered with soil. The compounds according to the invention, formulated in the form of wettable powders (WP) or as emulsifiable concentrates (EC), were applied to the surface of the covering soil as aqueous suspension or emulsion, with the addition of 0.5% of an additive, at an application rate of 600 1 of water/ha (converted).
Following treatment, the pots were placed in a greenhouse and kept under optimum growth conditions for the test plants.

ALOMY [25] = experiment: Herbicidal pre-emergence action, section C (Table C2); format: in vivo, Alopecurus myosuroides; conditions: application rate 320 g/ha; visual grading after ca. 3 weeks
ECHCG [26] = experiment: Herbicidal pre-emergence action, section C (Table C6); format: in vivo, Echinochloa crus-galli; conditions: application rate 80 g/ha; visual grading after ca. 3 weeks
LOLRI [27] = experiment: Herbicidal pre-emergence action, section C (Table C7); format: in vivo, Lolium rigidum; conditions: application rate 320 g/ha; visual grading after ca. 3 weeks
GLXMA [28] = experiment: Pre-emergence effects on crop plants (Table D4); format: in vivo, Glycine max; conditions: crop plant; application rate 80 g/ha; visual grading after ca. 3 weeks
ECHCG [29] = experiment: Herbicidal post-emergence action, section E (Table E5); format: in vivo, Echinochloa crus-galli; conditions: application rate 320 g/ha; assessed visually after ca. 3 weeks
Source text: as §4

Row | Compound | pre-emergence activity against ECHCG (ECHCG [1]; application rate 1280 g/ha) [%] | pre-emergence activity against LOLRI (LOLRI [2]; application rate 320 g/ha) [%] | pre-emergence activity against MATIN (MATIN [3]) [%] | pre-emergence activity against SETVI (SETVI [4]; application rate 1280 g/ha) [%] | pre-emergence activity against POAAN (POAAN [5]; application rate 320 g/ha) [%] | pre-emergence activity against KCHSC (KCHSC) [%] | post-emergence activity against ECHCG (ECHCG [6]; application rate 1280 g/ha) [%] | post-emergence activity against VERPE (VERPE [8]; application rate 1280 g/ha) [%] | post-emergence activity against AMARE (AMARE; application rate 1280 g/ha) [%] | post-emergence activity against POAAN (POAAN [7]; application rate 1280 g/ha) [%] | pre-emergence activity against ECHCG (ECHCG [1]; application rate 320 g/ha) [%] | pre-emergence activity against LOLRI (LOLRI [2]; application rate 1280 g/ha) [%] | pre-emergence activity against SETVI (SETVI [4]; application rate 320 g/ha) [%] | pre-emergence activity against ALOMY (ALOMY [9]) [%] | also measured
1 | O=C1N(Cc2cccs2)CCCC12CCCN(Cc1cccc(F)c1F)C2=O (racemic) [I-040] | 100 | 100 | 90 | 100 | 100 | 90 | 90 | 90 | 100 |  |  |  |  |  | pre-emergence activity against ABUTH (ABUTH): 90%; pre-emergence activity against STEME (STEME; application rate 320 g/ha): 90%; post-emergence activity against POAAN (POAAN [7]; application rate 320 g/ha): 100%
2 | COc1c(F)ccc(CN2CCCC3(CCCN(Cc4ccc(F)c(OC)c4F)C3=O)C2=O)c1F (racemic) [I-019] |  |  |  | 100 | 100 |  |  |  | 100 | 100 |  |  |  |  | pre-emergence activity against STEME (STEME; application rate 320 g/ha): 100%
3 | O=C1N(Cc2cccc(Cl)c2F)CCCC12CCCN(Cc1cccc(Cl)c1F)C2=O (racemic) [I-007] |  |  | 90 |  | 100 |  |  |  | 90 | 90 | 100 | 100 | 100 | 90 | pre-emergence activity against STEME (STEME; application rate 1280 g/ha): 90%; pre-emergence activity against VERPE (VERPE [10]): 90%; post-emergence activity against ECHCG (ECHCG [6]; application rate 320 g/ha): 100%; post-emergence activity against SETVI (SETVI [11]): 90%; post-emergence activity against VERPE (VERPE [8]; application rate 320 g/ha): 90%
4 | O=C1N(Cc2ccccn2)CCCC12CCCN(Cc1cccc(F)c1F)C2=O (racemic) [I-108] |  |  | 90 | 90 |  |  |  |  | 90 |  | 90 |  |  | 90 | pre-emergence activity against POAAN (POAAN [5]; application rate 1280 g/ha): 90%
5 | O=C1N(Cc2ccccc2F)CCC12CCN(Cc1ccccc1F)C2=O (racemic) [I-097] | 90 |  | 90 | 100 |  | 90 |  |  | 90 |  |  | 90 |  |  | 
6 | COc1ccccc1CN1CCCC2(CCCN(Cc3ccccc3Cl)C2=O)C1=O (racemic) [I-095] |  |  |  | 90 |  |  | 90 | 90 | 90 |  | 100 |  |  |  | 
7 | Cc1cccc(CN2CCCC3(CCCN(Cc4cccc(C)c4F)C3=O)C2=O)c1F (racemic) [I-053] | 100 |  |  | 100 | 100 |  |  |  |  | 90 |  | 90 |  |  | pre-emergence activity against DIGSA (DIGSA [12]): 100%; post-emergence activity against MATIN (MATIN [13]): 90%; pre-emergence activity against DIGSA (DIGSA [14]): 100%; pre-emergence activity against SETVI (SETVI [15]): 100%; pre-emergence activity against VIOTR (VIOTR): 90%; pre-emergence activity against ZEAMX (ZEAMX [16]): 0%; pre-emergence activity against TRZAS (TRZAS [17]): 0%; pre-emergence activity against BRSNW (BRSNW [18]): 10%; post-emergence activity against ZEAMX (ZEAMX [19]; application rate 320 g/ha): 0%; post-emergence activity against TRZAS (TRZAS [20]): 10%; post-emergence activity against ORYZA (ORYZA [21]): 0%; post-emergence activity against GLXMA (GLXMA [22]): 0%; post-emergence activity against BRSNW (BRSNW [23]): 20%; pre-emergence activity against ORYZA (ORYZA [24]; application rate 320 g/ha): 0%
8 | COc1ccccc1CN1CCCC2(CCCN(Cc3cccc(F)c3F)C2=O)C1=O (racemic) [I-052] |  | 100 |  |  |  |  | 90 |  |  |  | 100 |  | 100 |  | post-emergence activity against AMARE (AMARE; application rate 320 g/ha): 90%; pre-emergence activity against ALOMY (ALOMY [25]): 90%; pre-emergence activity against ECHCG (ECHCG [26]): 100%; pre-emergence activity against LOLRI (LOLRI [27]): 90%; pre-emergence activity against SETVI (SETVI [15]): 100%; pre-emergence activity against VIOTR (VIOTR): 80%; pre-emergence activity against ZEAMX (ZEAMX [16]): 0%; pre-emergence activity against GLXMA (GLXMA [28]): 20%; pre-emergence activity against BRSNW (BRSNW [18]): 0%; post-emergence activity against ECHCG (ECHCG [29]): 80%; post-emergence activity against ZEAMX (ZEAMX [19]; application rate 80 g/ha): 0%; post-emergence activity against TRZAS (TRZAS [20]): 0%; post-emergence activity against ORYZA (ORYZA [21]): 20%; post-emergence activity against BRSNW (BRSNW [23]): 0%; pre-emergence activity against ORYZA (ORYZA [24]; application rate 80 g/ha): 20%
9 | O=C1N(Cc2ccccc2)CCCC12CCCN(Cc1c(F)cccc1F)C2=O (racemic) [I-068] |  |  |  |  | 100 |  | 90 | 90 | 100 |  | 100 | 90 | 100 |  | pre-emergence activity against STEME (STEME; application rate 1280 g/ha): 90%
10 | O=C1N(Cc2cccs2)CCCC12CCCN(Cc1ccccc1F)C2=O (racemic) [I-065] |  | 100 |  |  |  | 90 |  |  | 90 | 90 | 90 |  | 90 | 90 | 
